Source: patent US9611251B2, “Substituted piperidine compounds and their use as orexin receptor modulators” (Janssen Pharmaceutica NV, priority 2013, dated 2017)

Assays:
[1] = target: human orexin 1 receptor (Homo sapiens, UniProt O43613); assay: Human orexin 1 receptor radioligand binding; settings: human orexin 1 receptor radioligand binding; averages of 2-20 runs; read-out: hOX1 Ki
[2] = target: human orexin 2 receptor (Homo sapiens (Human), UniProt O43614); assay: Human orexin 2 receptor radioligand binding ([3H]-EMPA); settings: averages of 2-20 runs, read-out: hOX2 Ki
Outline: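 Competition binding using homogenized HEK293 cells stably expressing human orexin 2 receptor, [3H]-EMPA at 2 nM final and ≤0.1% DMSO; nonspecific binding set with 10 μM almorexant. Filter-bound radioactivity counted by scintillation; one-site competition IC50 converted to Ki using pre-determined Kd, compounds run in triplicate.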

[3] = target: rat orexin 1 receptor (Rattus norvegicus, UniProt P56718); assay: Rat orexin 1 receptor radioligand binding; settings: rat orexin 1 receptor radioligand binding; averages of 2-20 runs; read-out: rOX1 Ki
Outline: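 Cell-suspension competition binding used 4 nM final tritiated thiazolyl-pyrrolidinyl-methanone radioligand in PBS, ≤0.1% DMSO, with 10 µM almorexant defining nonspecific binding. Filter-bound radioactivity was counted in triplicate. IC50 came from one-site competition fits and was converted to Ki using the predetermined Kd.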

Sequence of human orexin 2 receptor (O43614 whole entry): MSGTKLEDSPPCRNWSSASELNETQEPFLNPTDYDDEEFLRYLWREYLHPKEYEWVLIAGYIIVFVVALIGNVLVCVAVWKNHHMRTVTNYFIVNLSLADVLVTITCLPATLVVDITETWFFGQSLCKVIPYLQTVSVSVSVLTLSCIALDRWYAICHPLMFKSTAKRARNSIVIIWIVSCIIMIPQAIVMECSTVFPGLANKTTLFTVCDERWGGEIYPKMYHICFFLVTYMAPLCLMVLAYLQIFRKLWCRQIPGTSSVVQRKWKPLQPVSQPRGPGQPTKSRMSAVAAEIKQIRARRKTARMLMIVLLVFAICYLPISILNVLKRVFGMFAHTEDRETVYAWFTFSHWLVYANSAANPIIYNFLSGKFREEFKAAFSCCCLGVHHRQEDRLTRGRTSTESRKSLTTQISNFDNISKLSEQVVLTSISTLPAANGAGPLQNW

| Structure (SMILES) | Ki [1] | Ki [2] | Ki [3] |
| --- | --- | --- | --- |
| C[C@H]1[C@H](Oc2cnc(C(F)(F)F)cn2)CCCN1C(=O)c1cccc(F)c1-n1nccn1 [Example 125, (3-fluoro-2-(2H-1,2,3-triazol-2-yl)phenyl)((2S,3R)-2-methyl-3-((5-(trifluoromethyl)pyrazin-2-yl)oxy)piperidin-1-yl)methanone] | 0.138 µM | 2.5 µM | 0.117 µM |
| C[C@H]1[C@H](Oc2ccc(C(F)(F)F)cn2)CCCN1C(=O)c1cc(F)ccc1-c1ncccn1 [Example 138, (5-fluoro-2-(pyrimidin-2-yl)phenyl)((2S,3R)-2-methyl-3-((5-(trifluoromethyl)pyridin-2-yl)oxy)piperidin-1-yl)methanone] | 0.018 µM | 0.544 µM | 0.02 µM |
| C[C@H]1[C@H](Oc2ccc(C(F)(F)F)cn2)CCCN1C(=O)c1ccc(F)cc1-c1ncccn1 [Example 139, (4-fluoro-2-(pyrimidin-2-yl)phenyl)((2S,3R)-2-methyl-3-((5-(trifluoromethyl)pyridin-2-yl)oxy)piperidin-1-yl)methanone] | 0.051 µM | 1.2 µM | 0.051 µM |
| C[C@H]1[C@H](Oc2ccc(C(F)(F)F)cn2)CCCN1C(=O)c1ccccc1-c1ncc(F)cn1 [Example 141, (2-(5-fluoropyrimidin-2-yl)phenyl)((2S,3R)-2-methyl-3-((5-(trifluoromethyl)pyridin-2-yl)oxy)piperidin-1-yl)methanone] | 0.022 µM | 0.676 µM | 0.031 µM |
| C[C@H]1[C@H](Oc2ccc(C(F)(F)F)cn2)CCCN1C(=O)c1ccccc1-c1ncccn1 [Example 143, ((2S,3R)-2-methyl-3-((5-(trifluoromethyl)pyridin-2-yl)oxy)piperidin-1-yl)(2-(pyrimidin-2-yl)phenyl)methanone] | 0.015 µM | 0.473 µM | 0.025 µM |
| C[C@H]1[C@H](Oc2ccc(C(F)(F)F)cn2)CCCN1C(=O)c1ccc(F)cc1-n1nccn1 [Example 147, (4-fluoro-2-(2H-1,2,3-triazol-2-yl)phenyl)((2S,3R)-2-methyl-3-((5-(trifluoromethyl)pyridin-2-yl)oxy)piperidin-1-yl)methanone] | 0.031 µM | 0.765 µM | 0.05 µM |
| Cc1cnc(-n2nccn2)c(C(=O)N2CCC[C@@H](Oc3ccc(C(F)(F)F)cn3)[C@@H]2C)c1 [Example 149, (5-methyl-2-(2H-1,2,3-triazol-2-yl)pyridin-3-yl)((2S,3R)-2-methyl-3-((5-(trifluoromethyl)pyridin-2-yl)oxy)piperidin-1-yl)methanone] | 0.018 µM | 5.6 µM | 0.024 µM |
| Cc1ccc(C(=O)N2CCC[C@@H](Oc3ccc(C(F)(F)F)cn3)[C@@H]2C)c(-n2nccn2)n1 [Example 150, (6-methyl-2-(2H-1,2,3-triazol-2-yl)pyridin-3-yl)((2S,3R)-2-methyl-3-((5-(trifluoromethyl)pyridin-2-yl)oxy)piperidin-1-yl)methanone] | 0.039 µM | > 10 µM | 0.032 µM |
| Cc1cccc(C(=O)N2CCC[C@@H](Oc3ccc(C(F)(F)F)cn3)[C@@H]2C)c1-c1ncccn1 [Example 151, (3-methyl-2-(pyrimidin-2-yl)phenyl)((2S,3R)-2-methyl-3-((5-(trifluoromethyl)pyridin-2-yl)oxy)piperidin-1-yl)methanone] | 0.031 µM | 0.537 µM | 0.035 µM |
| Cc1cccc(C(=O)N2CCC[C@@H](Oc3ccc(C(F)(F)F)cn3)[C@@H]2C)c1-n1nccn1 [Example 152, (3-methyl-2-(2H-1,2,3-triazol-2-yl)phenyl)((2S,3R)-2-methyl-3-((5-(trifluoromethyl)pyridin-2-yl)oxy)piperidin-1-yl)methanone] | 0.02 µM | 0.412 µM | 0.028 µM |
| C[C@H]1[C@H](Oc2ncc(C(F)(F)F)cc2F)CCCN1C(=O)c1ccccc1-c1ncccn1 [Example 154, ((2S,3R)-3-((3-fluoro-5-(trifluoromethyl)pyridin-2-yl)oxy)-2-methylpiperidin-1-yl)(2-(pyrimidin-2-yl)phenyl)methanone] | 0.022 µM | 0.526 µM | 0.046 µM |
| C[C@H]1[C@H](Oc2ncc(C(F)(F)F)cc2F)CCCN1C(=O)c1cccc(F)c1-c1ncccn1 [Example 155, (3-fluoro-2-(pyrimidin-2-yl)phenyl)((2S,3R)-3-((3-fluoro-5-(trifluoromethyl)pyridin-2-yl)oxy)-2-methylpiperidin-1-yl)methanone] | 0.016 µM | 1.1 µM | 0.028 µM |

Results, then the compound that gave them:

| Ki [1] | Ki [2] | Ki [3] | Structure (SMILES) |
| --- | --- | --- | --- |
| 0.03 µM | 1.3 µM | 0.047 µM | C[C@H]1[C@H](Oc2ncc(C(F)(F)F)cc2F)CCCN1C(=O)c1ccccc1-c1ncc(F)cn1 [Example 156, ((2S,3R)-3-((3-fluoro-5-(trifluoromethyl)pyridin-2-yl)oxy)-2-methylpiperidin-1-yl)(2-(5-fluoropyrimidin-2-yl)phenyl)methanone] |
| 0.027 µM | > 10 µM | 0.049 µM | Cc1cnc(-n2nccn2)c(C(=O)N2CCC[C@@H](Oc3ncc(C(F)(F)F)cc3F)[C@@H]2C)c1 [Example 157, ((2S,3R)-3-((3-fluoro-5-(trifluoromethyl)pyridin-2-yl)oxy)-2-methylpiperidin-1-yl)(5-methyl-2-(2H-1,2,3-triazol-2-yl)pyridin-3-yl)methanone] |
| 0.034 µM | 0.575 µM | 0.036 µM | Cc1cccc(C(=O)N2CCC[C@@H](Oc3ncc(C(F)(F)F)cc3F)[C@@H]2C)c1-n1nccn1 [Example 158, ((2S,3R)-3-((3-fluoro-5-(trifluoromethyl)pyridin-2-yl)oxy)-2-methylpiperidin-1-yl)(3-methyl-2-(2H-1,2,3-triazol-2-yl)phenyl)methanone] |
| 0.014 µM | 1.55 µM | 0.06 µM | C[C@H]1[C@H](Oc2ncc(C(F)(F)F)cc2F)CCCN1C(=O)c1cccc(F)c1-n1nccn1 [Example 159, (3-fluoro-2-(2H-1,2,3-triazol-2-yl)phenyl)((2S,3R)-3-((3-fluoro-5-(trifluoromethyl)pyridin-2-yl)oxy)-2-methylpiperidin-1-yl)methanone] |
| 0.022 µM | 0.62 µM | 0.023 µM | Cc1ccc(-n2nccn2)c(C(=O)N2CCC[C@@H](Oc3ncc(C(F)(F)F)cc3F)[C@@H]2C)n1 [Example 160, ((2S,3R)-3-((3-fluoro-5-(trifluoromethyl)pyridin-2-yl)oxy)-2-methylpiperidin-1-yl)(6-methyl-3-(2H-1,2,3-triazol-2-yl)pyridin-2-yl)methanone] |
| 0.395 µM | 3.2 µM | 0.226 µM | C[C@H]1[C@H](Oc2ncc(Cl)cn2)CCCN1C(=O)c1cccc(F)c1-n1nccn1 [Example 161, ((2S,3R)-3-((5-chloropyrimidin-2-yl)oxy)-2-methylpiperidin-1-yl)(3-fluoro-2-(2H-1,2,3-triazol-2-yl)phenyl)methanone] |
| 0.23 µM | 3.8 µM | 0.144 µM | Cc1ccc(-n2nccn2)c(C(=O)N2CCC[C@@H](Oc3ncc(Cl)cn3)[C@@H]2C)n1 [Example 164, ((2S,3R)-3-((5-chloropyrimidin-2-yl)oxy)-2-methylpiperidin-1-yl)(6-methyl-3-(2H-1,2,3-triazol-2-yl)pyridin-2-yl)methanone] |
| 0.077 µM | 4.4 µM | 0.059 µM | C[C@H]1[C@H](Oc2ncc(C(F)(F)F)cn2)CCCN1C(=O)c1ccccc1-c1ncc(F)cn1 [Example 165, (2-(5-fluoropyrimidin-2-yl)phenyl)((2S,3R)-2-methyl-3-((5-(trifluoromethyl)pyrimidin-2-yl)oxy)piperidin-1-yl)methanone] |
| 0.124 µM | 3.1 µM | 0.097 µM | C[C@H]1[C@H](Oc2cnc(C(F)(F)F)cn2)CCCN1C(=O)c1ccccc1-c1ncc(F)cn1 [Example 166, (2-(5-fluoropyrimidin-2-yl)phenyl)((2S,3R)-2-methyl-3-((5-(trifluoromethyl)pyrazin-2-yl)oxy)piperidin-1-yl)methanone] |
| 0.028 µM | 1.8 µM | 0.03 µM | Cc1cccc(C(=O)N2CCC[C@@H](Oc3ncc(C(F)(F)F)cn3)[C@@H]2C)c1-c1ncccn1 [Example 167, (3-methyl-2-(pyrimidin-2-yl)phenyl)((2S,3R)-2-methyl-3-((5-(trifluoromethyl)pyrimidin-2-yl)oxy)piperidin-1-yl)methanone] |
| 0.025 µM | 0.951 µM | 0.029 µM | C[C@H]1[C@H](Oc2cnc(C(F)(F)F)cn2)CCCN1C(=O)c1ccccc1-c1ncccn1 [Example 168, ((2S,3R)-2-methyl-3-((5-(trifluoromethyl)pyrazin-2-yl)oxy)piperidin-1-yl)(2-(pyrimidin-2-yl)phenyl)methanone] |
| 0.023 µM | 1.2 µM | 0.032 µM | C[C@H]1[C@H](Oc2ncc(C(F)(F)F)cn2)CCCN1C(=O)c1ccccc1-c1ncccn1 [Example 169, ((2S,3R)-2-methyl-3-((5-(trifluoromethyl)pyrimidin-2-yl)oxy)piperidin-1-yl)(2-(pyrimidin-2-yl)phenyl)methanone] |
| 0.049 µM | 2.8 µM | 0.048 µM | Cc1cccc(C(=O)N2CCC[C@@H](Oc3ncc(C(F)(F)F)cn3)[C@@H]2C)c1-c1ncc(F)cn1 [Example 170, (2-(5-fluoropyrimidin-2-yl)-3-methylphenyl)((2S,3R)-2-methyl-3-((5-(trifluoromethyl)pyrimidin-2-yl)oxy)piperidin-1-yl)methanone] |
